Patent EP0537092A1, “Infracellular vesicular vectors and their application in cosmetic and medical compositions and culture media” (priority 1991, dated 1993)
Read-outs that look alike come from different tables or passages of the source.

How the values were obtained:
Assay type in all cases: cell-based, humaine
fibroblastes [1] = assay: summary conclusion on modulation of fibroblast activity (Tableau 10); settings: Temps : 48 h
Source text: Le tableau 10 ci-après résume les résultats obtenus. TABLEAU 10
Ce tableau montre bien la capacité qu'ont les vecteurs selon l'invention à moduler l'activité des fibroblastes lorsqu'ils portent à leur surface certaines fonctions hydrophiles fixées sur ledit vecteur par un ester ou une amide d'acide gras.

[2] = test system: collagénase interstitielle (MMP-1); assay: collagenase activity in the culture medium of fibroblasts; settings: for Collagénase: Temps : 48 h, factor of change (summary table)
Procedure: (§1) Les résultats des essais présentés ci-après ont été obtenus selon la méthodologie suivante : Conditions de culture : les fibroblastes sont obtenus à partir d'explants de peau humaine. Les cellules sont maintenues en culture dans du milieu DMEM (Gibco) additionné de 10 % de sérum de veau foetal (Gibco) et d'antibiotiques (pénicilline 100 U/ml, streptomycine 100 µg/ml).
(§2) Les subcultures sont réalisées par trypsination (Trypsin-EDTA, Gibco). Les cellules sont utilisées du 2e au 10e passage.
(§3) Conditions de traitements : Les cultures de fibroblastes témoins se réferent aux cultures avec vecteurs sans principe actif, en quantité similaire aux autres traitements. Les cultures traitées avec la molécule en solution se réfèrent aux conditions de la culture témoin et de la molécule sous forme soluble.
(§4) Les cultures traitées avec la forme vectoriale de la molécule impliquent que la molécule active soit inclue préalablement dans les vecteurs.
Mesure de l'activité collagénasique dans le milieu de culture
On mesure la collagénase interstitielle qui dégrade les collagènes interstitiels natifs de type I-III. • a) Préparation du substrat : le collagène de type I, marqué au carbone-14, en solution dans CH3COOH 0,1 M est neutralisé à pH 7,4 par du Tris 1 M et dilué avec le tampon NaCl 0,15 M/CaCl2, 4 mM/Tris-HCl 50 mM, pH 7,4 contenant du NEM 0,5 mM et du PMSF 0,1mM à raison de […] substrat (= 10000 cpm/essai). • b) Dosage de la collagénase: 100 µl de milieu sont activés par 10 µl de trypsine (1 mg/ml) à 37°C pendant 10 mn, suivi de l'addition de 10 µl de SBTI (5 mg/ml): 10 mn à température ambiante. 100 µl de milieu sont aussi testés sans activation par la trypsine (mesure de la forme active de l'enzyme).
Le substrat (10000 cpm/essai) est ajouté, éventuellement en présence d'EDTA 25 mM, le volume final étant de 250 µl. La réaction se déroule pendant 18 h à 25°C puis est stoppée par addition de 20 µl d'EDTA 250 mM (10 mn à température ambiante).Le mélange est ensuite chauffé 10 mn à 39°C.
Le collagène non dégradé est précipité par l'éthanol à la concentration finale de 18 % (30 mn à température ambiante).
Finalement, le mélange est centrifugé à 6000 g pendant 30 mn à 4°C. Des aliquots de 200 µl des surnageants sont mélangés avec 5 ml de liquide scintillant aqueux puis comptés pour leur radioactivité.
Une unité de collagénase est définie comme la quantité d'enzyme nécessaire pour dégrader 1 µg de collagène natif par heure à 25°C.

fibroblastes [3] = settings: for prolifération des fibroblastes traités avec le Palmitate d'hydroxyproline: 10^4 cellules par puit
Procedure: as §1, §2, §3, §4
[…] Puis on ajoute le sel de tétrazolium jaune (5 mg / ml). Il est réduit par les réductases mitochondriales des cellules vivantes en un produit formazan violet qui est ensuite solubilisé par de l'HCl 0,04 N dans de l'isopropanol.
La réaction colorée est lue à une longueur d'onde de 570 nm par un Multiskan Titertek (Flow Laboratories) et exprimée en densité optique.

collagène de type III = assay: radioimmunoassay of soluble collagen type III in fibroblast culture supernatant
Procedure: as §1, §2, §3, §4
(§5) Evaluation des collagènes solubles par dosage radioimmunologique : On prélève 100 µl de surnageant de culture et on y ajoute 100 µl d'anticorps anticollagène de type I ou anti-collagène de type III et 200 µl de PBS.

collagène de type I = test system: collagène de type I
Procedure: as §1, §2, §3, §4, §5

O=C(O)[C@@H]1C[C@@H](O)CN1 [Hydroxyproline libre, Hydroxyproline]
CONCLUSION à 4.10⁵cell. (fibroblastes [1]; 10 µg/ml): Stimulant sélectif du collagène I
Collagénase ([2]; 10 µg/ml): =
Cytotoxicité Test MTT (fibroblastes [3]; Temps : 48 h, 10 µg/ml): non
Prolifération (fibroblastes [3]; Temps : 48 h, 10 µg/ml, factor of change (summary table)): =
fold induction at 10 µg/mL (collagène de type III; Skin fibroblast, Temps : 48 h, 10 µg/ml, factor of change (summary table), read-out: Synthèse collag. III): 2

CCCCCCCCCCCCCCCC(=O)OC[C@H](O)[C@H]1OC(=O)C(O)=C1O [palmitate d'ascorbyle en solution, palmitate d'ascorbyle]
CONCLUSION à 4.10⁵cell. (fibroblastes [1]; 25 µg/ml): Stimulants non sélectifs
Collagénase ([2]; 25 µg/ml): =
Cytotoxicité Test MTT (fibroblastes [3]; Temps : 48 h, 25 µg/ml): non
fold induction at 25 µg/mL (collagène de type III; Skin fibroblast, Temps : 48 h, 25 µg/ml, factor of change (summary table), read-out: Synthèse collag. III): 30

Palmitate d'hydroxyproline [Palmitate d'hydroxyproline Solution]
CONCLUSION à 4.10⁵cell. (fibroblastes [1]; 40 µg/ml): inhibit. des collagènes.
Collagénase ([2]; 40 µg/ml): =
dose qui stimule de manière significative la synthèse de la collagénase ([2]; cultures de fibroblastes): 1 µg/mL
prolifération des fibroblastes traités avec le Palmitate d'hydroxyproline (fibroblastes [3]; 24 heures, 1 µg / ml): 0,493 ± 0,029 densité optique
prolifération des fibroblastes traités avec le Palmitate d'hydroxyproline (fibroblastes [3]; 24 heures, 5 µg / ml): 0,492 ± 0,016 densité optique
prolifération des fibroblastes traités avec le Palmitate d'hydroxyproline (fibroblastes [3]; 24 heures, 10 µg / ml): 0,502 ± 0,019 densité optique
prolifération des fibroblastes traités avec le Palmitate d'hydroxyproline (fibroblastes [3]; 24 heures, 20 µg / ml): 0,457 ± 0,022 densité optique
prolifération des fibroblastes traités avec le Palmitate d'hydroxyproline (fibroblastes [3]; 48 heures, 1 µg / ml): 0,494 ± 0,012 densité optique
prolifération des fibroblastes traités avec le Palmitate d'hydroxyproline (fibroblastes [3]; 48 heures, 5 µg / ml): 0,513 ± 0,025 densité optique
prolifération des fibroblastes traités avec le Palmitate d'hydroxyproline (fibroblastes [3]; 48 heures, 10 µg / ml): 0,511 ± 0,020 densité optique
prolifération des fibroblastes traités avec le Palmitate d'hydroxyproline (fibroblastes [3]; 48 heures, 20 µg / ml): 0,471 ± 0,028 densité optique
prolifération des fibroblastes traités avec le Palmitate d'hydroxyproline (fibroblastes [3]; 72 heures, 1 µg / ml): 0,490 ± 0,019 densité optique
prolifération des fibroblastes traités avec le Palmitate d'hydroxyproline (fibroblastes [3]; 72 heures, 5 µg / ml): 0,500 ± 0,028 densité optique
prolifération des fibroblastes traités avec le Palmitate d'hydroxyproline (fibroblastes [3]; 72 heures, 10 µg / ml): 0,496 ± 0,017 densité optique
dose à partir de laquelle une cytotoxicité est détectée (fibroblastes [3]; human, skin fibroblasts): ≥ 20 µg/mL
synthèse de collagène type I par des fibroblastes traités avec le palmitate d'hydroxyproline (collagène de type I; 24 heures, 1 µg/ml): 268 ± 18 ng/mL
synthèse de collagène type I par des fibroblastes traités avec le palmitate d'hydroxyproline (collagène de type I; 24 heures, 5 µg/ml): 232 ± 10 ng/mL
synthèse de collagène type I par des fibroblastes traités avec le palmitate d'hydroxyproline (collagène de type I; 48 heures, 1 µg/ml): 519 ± 37 ng/mL
synthèse de collagène type I par des fibroblastes traités avec le palmitate d'hydroxyproline (collagène de type I; 72 heures, 1 µg/ml): 513 ± 77 ng/mL
synthèse de collagène type I par des fibroblastes traités avec le palmitate d'hydroxyproline (collagène de type I; 72 heures, 5 µg/ml): 470 ± 5 ng/mL
synthèse de collagène type III par des fibroblastes traités avec le palmitate d'hydroxyproline (collagène de type III; 24 heures, 1 µg/ml): 295 ± 24 ng/mL
synthèse de collagène type III par des fibroblastes traités avec le palmitate d'hydroxyproline (collagène de type III; 24 heures, 5 µg/ml): 281 ± 16 ng/mL
synthèse de collagène type III par des fibroblastes traités avec le palmitate d'hydroxyproline (collagène de type III; 48 heures, 1 µg/ml): 588 ± 69 ng/mL
synthèse de collagène type III par des fibroblastes traités avec le palmitate d'hydroxyproline (collagène de type III; 48 heures, 5 µg/ml): 519 ± 20 ng/mL
synthèse de collagène type III par des fibroblastes traités avec le palmitate d'hydroxyproline (collagène de type III; 72 heures, 1 µg/ml): 628 ± 161 ng/mL
synthèse de collagène type III par des fibroblastes traités avec le palmitate d'hydroxyproline (collagène de type III; 72 heures, 5 µg/ml): 548 ± 24 ng/mL
